From PubChem BioAssay (NCI)
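At the GI50, growth is halved. TGI denotes the concentration required for complete inhibition of growth.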

Columns and labels:
Experiment in all cases: NCI-60 cell line screen, 384-well format
CAKI-1 renal = test system: CAKI-1 renal
OVCAR-8 ovarian = test system: OVCAR-8 ovarian
NCI/ADR-RES ovarian = test system: NCI/ADR-RES ovarian
SK-MEL-28 melanoma = test system: SK-MEL-28 melanoma
IGROV1 ovarian = test system: IGROV1 ovarian
NCI-H460 NSCLC = test system: NCI-H460 NSCLC
HCT-116 colon = test system: HCT-116 colon
SNB-75 CNS = test system: SNB-75 CNS
A549 NSCLC = test system: A549 NSCLC
T-47D breast = test system: T-47D breast
NCI-H226 lung = test system: NCI-H226 lung
OVCAR-3 ovarian = test system: OVCAR-3 ovarian
HOP-62 NSCLC = test system: HOP-62 NSCLC
HCT-15 colon = test system: HCT-15 colon
UO-31 renal = test system: UO-31 renal
SK-MEL-2 melanoma = test system: SK-MEL-2 melanoma
NCI-H522 lung = test system: NCI-H522 lung
SN12C renal = test system: SN12C renal
BT-549 breast = test system: BT-549 breast
CCRF-CEM leukemia = test system: CCRF-CEM leukemia
OVCAR-5 ovarian = test system: OVCAR-5 ovarian
HOP-92 NSCLC = test system: HOP-92 NSCLC
SF-295 CNS = test system: SF-295 CNS
MOLT-4 leukemia = test system: MOLT-4 leukemia
NCI-H322M lung = test system: NCI-H322M lung
RXF 393 renal = test system: RXF 393 renal
M14 melanoma = test system: M14 melanoma
MDA-MB-231 breast = test system: MDA-MB-231 breast
MALME-3M melanoma = test system: MALME-3M melanoma
ACHN renal = test system: ACHN renal

Compound `CCS(=O)(=O)N1CCN(c2ccc(Nc3ncc(C(N)=O)c(NC4CC4)n3)cc2)CC1` has a TGI (CAKI-1 renal) greater than 100 µM, a GI50 (OVCAR-8 ovarian) of 0.371 µM and a TGI (OVCAR-8 ovarian) of 1.4 µM. It also gave a GI50 (NCI/ADR-RES ovarian) of 7.08 µM, a TGI (NCI/ADR-RES ovarian) of 28.6 µM and a GI50 (SK-MEL-28 melanoma) of 2.93 µM. The TGI (SK-MEL-28 melanoma) was 50.7 µM, the GI50 (IGROV1 ovarian) was 2.82 µM and the TGI (IGROV1 ovarian) was 16.3 µM. The GI50 (NCI-H460 NSCLC) was 3.17 µM, the TGI (NCI-H460 NSCLC) was 51.7 µM and the GI50 (HCT-116 colon) was 3.72 µM. The TGI (HCT-116 colon) was 91.1 µM, the GI50 (SNB-75 CNS) was 4.03 µM and the TGI (SNB-75 CNS) was 8.56 µM. It also gave a GI50 (A549 NSCLC) of 1.83 µM, a TGI (A549 NSCLC) greater than 100 µM and a GI50 (T-47D breast) of 2.23 µM. The TGI (T-47D breast) was 4.43 µM, the GI50 (NCI-H226 lung) was 0.633 µM and the TGI (NCI-H226 lung) was 10.6 µM. For the same compound, the GI50 (OVCAR-3 ovarian) was 2.61 µM, the TGI (OVCAR-3 ovarian) was 7.63 µM and the GI50 (HOP-62 NSCLC) was 1.89 µM. For the same compound, the TGI (HOP-62 NSCLC) was 5.01 µM, the GI50 (HCT-15 colon) was 1.58 µM and the TGI (HCT-15 colon) was 3.27 µM. It also gave a GI50 (UO-31 renal) of 2.92 µM, a TGI (UO-31 renal) greater than 100 µM and a GI50 (SK-MEL-2 melanoma) of 1.87 µM. The TGI (SK-MEL-2 melanoma) was 3.89 µM, the GI50 (NCI-H522 lung) was 0.674 µM and the TGI (NCI-H522 lung) was 4.97 µM. It also gave a GI50 (SN12C renal) of 1.76 µM, a TGI (SN12C renal) of 10.2 µM and a GI50 (BT-549 breast) of 1.1 µM. It also gave a TGI (BT-549 breast) of 2.51 µM, a GI50 (CCRF-CEM leukemia) of 0.366 µM and a TGI (CCRF-CEM leukemia) of 1.27 µM. For the same compound, the GI50 (OVCAR-5 ovarian) was 4.25 µM, the TGI (OVCAR-5 ovarian) was 18.7 µM and the GI50 (HOP-92 NSCLC) was 3.72 µM. For the same compound, the TGI (HOP-92 NSCLC) was 14.9 µM, the GI50 (SF-295 CNS) was 1.26 µM and the TGI (SF-295 CNS) was 3.43 µM. It also gave a GI50 (MOLT-4 leukemia) of 0.381 µM, a TGI (MOLT-4 leukemia) of 1.54 µM and a GI50 (NCI-H322M lung) of 1.59 µM. For the same compound, the TGI (NCI-H322M lung) was 3.93 µM, the GI50 (RXF 393 renal) was 1.51 µM and the TGI (RXF 393 renal) was 3.73 µM. It also gave a GI50 (M14 melanoma) of 0.301 µM, a TGI (M14 melanoma) of 3.42 µM and a GI50 (MDA-MB-231 breast) of 2.93 µM. The TGI (MDA-MB-231 breast) was 33.6 µM, the GI50 (MALME-3M melanoma) was 0.539 µM and the TGI (MALME-3M melanoma) was 4.14 µM. It also gave a GI50 (ACHN renal) of 4.3 µM and a TGI (ACHN renal) greater than 100 µM.
